Measured values: article PMC11672137, “High-Affinity Lectin Ligands Enable the Detection of Pathogenic Pseudomonas aeruginosa Biofilms: Implications for Diagnostics and Therapy” (JACS Au, 2024)

Tested on: P. aeruginosa PAO1 biofilms
Experiment: In vitro biofilm staining under flow conditions, injection method
Type: cell-based, Pseudomonas aeruginosa
Conditions: 17 μM in channel, 10 min incubation, then flow 3 mL/h for 10-20 min
Method: P. aeruginosa biofilms were grown under flow conditions and observed by fluorescence microscopy in analogy to Ghanbari et al.[66] To this end, P. aeruginosa PAO1 expressing the red fluorescent protein mCherry[56] was diluted to an OD600 nm of 0.1 and injected into the microfluidics device. After a 30-min settling period, biofilms were grown under a constant laminar flow rate of 3 mL/h per channel. Following 48 h of incubation at 30 °C, dense and mature P. aeruginosa PAO1 biofilms were observed, which were then further used for analysis of the imaging probes.
Two different staining methods were evaluated for the imaging of P. aeruginosa PAO1 biofilms: (I) direct injection of the imaging compounds into the flow system or (II) compound supplementation into the medium and gradual accumulation at the biofilm (Figure S18). […] The flow of compounds 17 and 24 and their arrival in the flow cells were monitored using a fluorescence microscope attached to the flow system. […]
Figure 4 Staining of P. aeruginosa PAO1 biofilms under flow following the injection method. […] Pictures of the same aggregates were recorded prior to compound injection (t−10), during a 10 min incubation period without flow (t0) and during the wash period (constant flow, 3 mL/h) at different time points t5, t10, t15, and t20 (5, 10, 15, and 20 min) using a fluorescence microscope. […]

For O=C(CCc1ccc(O[C@@H]2O[C@H](CO)[C@H](O)[C@H](O)[C@H]2O)cc1)Nc1ccc(CN(CCc2cn(CCOCCOCCOCCNC(=S)Nc3ccc4c(c3)C(=O)OC43c4ccc(O)cc4Oc4cc(O)ccc43)nn2)Cc2ccc(NC(=O)CCc3ccc(O[C@@H]4O[C@H](CO)[C@H](O)[C@H](O)[C@H]4O)cc3)cc2)cc1 [compound 17], the “Retention of fluorescence at biofilm during wash” value was “retained at the P. aeruginosa biofilm aggregates”.
